Assay [1] has as its system PAF-induced platelet aggregation (human platelet-rich plasma). The assay can be described thus: PAF-induced platelet aggregation (in vitro). The assay is classed as cell-based. As to conditions: PAF 1-5×10^-8 M, read-out: PAF Antagonism (in vitro) IC50. As to the method: Platelet-activating factor (PAF) causes aggregation of platelets by a receptor-mediated mechanism. Therefore, PAF-induced platelet aggregation provides a simple and convenient assay to screen compounds for PAF antagonism.
Blood was centrifuged at 110× g for 15 min. and the supernatant platelet-rich plasma (PRP) carefully transferred into a polypropylene tube. Platelet-poor-plasma (PPP) was prepared by centrifuging PRP at 12,000× g for 2 min. (Beckman Microfuge B). PRP was used within 3 hr. of drawing the blood.
PAF was dissolved in chloroform:methanol (1:1, v/v) at a concentration of 2 mg/ml and stored at -70° C. An aliquot of this solution was transferred to a polypropylene tube and dried under a flow of nitrogen gas. […] This stock solution was further diluted to appropriate concentrations in Hepes-saline-BSA buffer. Collagen (Sigma) and adenosine diphosphate (ADP) (Sigma) were purchased as solutions. Test compounds were initially dissolved in dimethyl sulfoxide (DMSO) at a concentration of 50 mM and then further diluted in Hepes-saline-BSA buffer to achieve appropriate concentrations.
When an aggregating agent such as PAF is added to PRP, platelets aggregate. An aggregometer quantifies this aggregation by measuring and comparing light (infra-red) transmission through PPP and PRP. Aggregation assays were performed using a dual-channel aggregometer (Model 440, Chrono-Log Corp., Havertown, Pa.). PRP (0.45 ml) in aggregometer cuvettes was continually stirred (37° C.). […] Incubations were continued until the increase in light transmission reached a maximum (usually 2 min.). This increase in light transmission reflecting platlet aggregation is transmitted to a computer by the Chrono-Log model 810 AGGRO/LINK interface. The AGGRO/LINK calculates the slope of transmission change, thus providing the rate of aggregation. Values for inhibition were calculated by comparing rates of aggregation obtained in the absence and the presence of the compound. For each experiment, a standard PAF antagonist such as 8-chloro-6,11-dihydro-11-(1-acetyl-4-piperidylidene)-5H-benzo[5,6]cyclohepta[1,2-b]pyridine was used as a positive control.
Compounds that inhibit PAF-induced aggregation were tested against several other aggregating agents including collagen (0.2 mg/ml) and ADP (2 μM).

The test system of assay [2] is PAF. The experiment in a line: PAF-induced bronchospasm in guinea pigs. Also on record: species or system guinea pig (male Hartley). To be noted: Cavia porcellus, read-out: PAF Agonist Bronchospasm (in Vivo) % Inhibition.
The test system of assay [3] is Histamine. The assay can be described thus: Histamine-induced bronchospasm in guinea pigs. The assay is classed as in vivo, guinea pig (male Hartley). As to conditions: oral, histamine 10 ug/kg i.v. As to the method: Male Hartley guinea pigs (450-550 g) were obtained from Charles River Breeding Laboratories. The animals were fasted overnight and the following day were anesthetized with 0.9 ml/kg i.p. of dialurethane (containing 0.1 g/ml diallylbarbituric acid, 0.4 g/ml ethylurea and 0.4 g/ml urethane). The left jugular vein was cannulated for the administration of compounds. The trachea was cannulated and the animals were ventilated by a rodent respirator at 55 strokes/min. with a stroke volume of 4 ml. A side arm to the tracheal cannula was connected to a pressure transducer to obtain a continuous measure of inflation pressure. Bronchoconstriction was measured as the percent increase in inflation pressure that peaked within 5 min. after challenge with spasmogen. […] Each animal was challenged with only a single spasmogen. The effect of a compound on the bronchospasm is expressed as a percent inhibition of the increase in inflation pressure compared to the increase in a control group.

Broadly, the IC50 is the midpoint of a concentration-inhibition curve. The inhibition in vivo is the relative decrease from the control value, in per cent.

Where two headings read alike, the source gives them in different places. Some results are limits rather than exact numbers.

Turning to `[O-][n+]1ccc(CN2CCN(C3c4ccc(Cl)cc4CCc4cccnc43)CC2)cc1` (racemic) [Compound 7], the IC50 in assay [1] turned out to be 0.71 µM. Further, in assay [2] (oral, PAF 0.4 μg/kg i.v.), the inhibition in vivo at 3 mg/kg amounted to 81%. In assay [3] (3 mg/kg), the “Histamine Agonist Bronchospasm (in Vivo) % Inhibition” value is 100%.

Turning to `[O-][n+]1ccc(CN2CCN(C3c4ccc(Cl)cc4OCc4cccnc43)CC2)cc1` (racemic) [Compound 9], the IC50 in assay [1] stood at 1.7 µM. The inhibition in vivo at 3 mg/kg in assay [2] (oral, PAF 0.4 μg/kg i.v.) was found to be 22%.

As for `CCOC(=O)N1CCC(=C2c3ccc(Cl)cc3CCc3cccnc32)CC1` [Compound 1, reference compound], the inhibition in vivo at 10 mg/kg in assay [2] (po) is less than 50%. Besides, the “Histamine Agonist Bronchospasm (in Vivo) % Inhibition” value in assay [3] (1 mg/kg) was more than 50%.

For `CC(=O)N1CCC(=C2c3ccc(Cl)cc3CCc3cccnc32)CC1` [Compound 2, reference compound], the IC50 in assay [1] is 0.61 µM. In addition, in assay [2] (oral, PAF 0.4 μg/kg i.v.), the inhibition in vivo at 5 mg/kg worked out at 59%. In assay [3] (3 mg/kg), the “Histamine Agonist Bronchospasm (in Vivo) % Inhibition” value was determined as 49%.

Turning to `Clc1ccc2c(c1)CCc1cccnc1C2=C1CCN(Cc2ccncc2)CC1` [Compound 3], the IC50 in assay [1] is 7.3 µM. For the same compound, the inhibition in vivo at 3 mg/kg in assay [2] (oral, PAF 0.4 μg/kg i.v.) was found to be 32%.

Take `[O-][n+]1ccc(CN2CCC(=C3c4ccc(Cl)cc4CCc4cccnc43)CC2)cc1` [Compound 4]: in assay [1], the IC50 came to 4.1 µM. Besides, the inhibition in vivo at 3 mg/kg in assay [2] (oral, PAF 0.4 μg/kg i.v.) was 35%. Also, the “Histamine Agonist Bronchospasm (in Vivo) % Inhibition” value in assay [3] (1 mg/kg) came out at 96%.

For the compound `[O-][n+]1ccc(CN2CCC(=C3c4ccccc4C=Cc4ccccc43)CC2)cc1` [Compound 5], the IC50 in assay [1] was 7.4 µM. The inhibition in vivo at 10 mg/kg in assay [2] (oral, 10 mg/kg, PAF 0.4 μg/kg i.v.) amounted to 15%.

For the compound `[O-][n+]1ccc(CN2CCC(=C3c4ccccc4CCc4ccccc43)CC2)cc1` [Compound 6], the IC50 in assay [1] worked out at 3.4 µM. Moreover, the inhibition in vivo at 3 mg/kg in assay [2] (oral, PAF 0.4 μg/kg i.v.) came out at 0%.

`[O-][n+]1ccc(CN2CCC(=C3c4ccc(Cl)cc4SCc4cccnc43)CC2)cc1` [Compound 8]: the 50% inhibitory concentration (IC50) in assay [1] is 1 µM. The inhibition in vivo at 5 mg/kg in assay [2] (oral, PAF 0.4 μg/kg i.v.) worked out at 67%. Also, the “Histamine Agonist Bronchospasm (in Vivo) % Inhibition” value in assay [3] (1 mg/kg) is 83%.

For the compound `[O-][n+]1ccc(CN2CCC(=C3c4ccccc4Oc4cccnc43)CC2)cc1` [Compound 10], the IC50 in assay [1] turned out to be 8.1 µM.
